Source: patent publication US20100160391A1, “Substituted Aminopyridines as Fluorescent Reporters for Amide Hydrolases” (priority 2006, published 2010)
Marks after values point to notes of the source that are not given here.

What was measured:
[1] = Molar extinction coefficient of fluorescent reporters; assay type: physicochemical; conditions: H2O containing 1% ethanol, 290 nm, 30° C., 10-50 μM
Description: Molar extinction coefficient. According to Beer's law, Aλ=ε*C*L, where Aλ is the absorbance at wavelength (λ nm); ε is called the molar extinction coefficient; L is the width of the sample cuvette; and C is the concentration of the solute. In this example, a series of concentrations falling between 10 and 50 μM (final concentration) for each fluorescent reporter was used for determination of the molar extinction coefficient. Assays were performed in a quartz cuvette (1 cm optical passage). 10 μl of a stock solution of a reporter in ethanol (1, 2, 3, 4, or 5 mM) was added to 990 μl H2O. The resulting mixture was degassed by sonication with ultrasonic cleaner Model 750 (VWR International; Wester, Pa.) for 10 seconds at a power level of 9. Measurements were performed with a Spectra Max M2 spectrophotometer (Molecular Devices; Sunnyvale, Calif.) at a wavelength of 290 nm. A slope (or extinction coefficient) was obtained by using an average absorbance of triplicate samples.

[2] = Maximal excitation and emission wavelengths; assay type: physicochemical; conditions: 50 μM in 0.1 M phosphate buffer, 30° C.; SD ±2 nm
Description: Maximal excitation and emission wavelengths. A stock solution in ethanol of each compound (10 μl, 5 mM) was added to 990 μl of sodium phosphate buffer (0.1 M, pH 8.0, final substrate concentration 50 μM) in a 1-cm quartz cuvette. The quartz cuvette was scanned from 200 to 500 nm for absorption spectra with a Spectra Max M2 spectrophotometer. Maximal excitation and emission wavelengths were obtained from scanning from 250 to 600 nm and 360 to 600 nm by a 2 nm interval at 30° C., respectively.

[3] = Fluorescence quantum yield; assay type: physicochemical; conditions: 10 μM, 1% ethanol in water, excitation 290 nm, standard 3-aminopyridine; SD under ±5%
Description: Quantum yield. The fluorescence quantum yield, φf, was calculated according to the following equation:
ØF=Østd*(I/Istd)*(ODstd/OD)*(n/nstd)^2,
wherein ØF is the quantum yield of the tested fluorescent reporter; Østd is the fluorescence quantum yield of the standard; I and Istd are the integrated emission intensities of the sample and the standard, respectively; OD and ODstd are the absorbance of the sample and standard, respectively, at the desired wavelength λex; and n and nstd are the indexes of refraction of the sample and standard solutions, respectively (Horspool and Song (Eds.), CRC Handbook of Organic Photochemistry I, pp 234-235, CRC Press, Boca Raton, Fla., 1995).
In this example, 3-aminopyridine in water at the maximal excitation wavelength of 290 nm was used as a standard (Østd=0.32, εmax=2800 M^−1 cm^−1) (see, e.g., Weisstuch et al., J. Phys. Chem., 72:1982-1987 (1968)). In order to minimize inner filter effects, the optical densities of samples at the excitation wavelength (λ=290 nm) were kept in the range of 0.095-0.13 (less than 0.150-0.165). The final concentration of each tested sample in a quartz cuvette was 10 μM with 1% ethanol in water, same as that for the standard. The integrated area of fluorescent intensity for the standard or the samples was based on the area between 360 and 500 nm. The difference of the index of refraction between the standard and the sample was neglected because (1) all measurements were performed in the same quartz cuvette and spectrofluorimeter; (2) the final concentrations of the sample and the standard were the same; and (3) the structures of the sample and standard were very similar, i.e., only one pyridine ring. The quantum yields presented in Table 1 were based on calculation of the average of OD and integrated fluorescent intensities of triplicates. The standard deviation for each quantum yield was less than ±5%.

[4] = biological target: T1, L-Leucine aminopeptidase from porcine kidney microsomes (Sus scrofa, UniProt P15145); assay: Sensitivity of L-Leucine aminopeptidase toward colorimetric and fluorescent substrates; assay type: biochemical; conditions: for base line, Average: 0 min; for base line, Average / signal, Average: 25 μM; for signal, Average: 10 min; for Protein, lowest detection limit of L-Leucine aminopeptidase (signal at 10 min ≥ 3 times base line): substrate 25 μM
T1 construct: purchased Sigma-Aldrich L5006; host or cells: porcine kidney microsomes
T1 sequence (P15145 1-963): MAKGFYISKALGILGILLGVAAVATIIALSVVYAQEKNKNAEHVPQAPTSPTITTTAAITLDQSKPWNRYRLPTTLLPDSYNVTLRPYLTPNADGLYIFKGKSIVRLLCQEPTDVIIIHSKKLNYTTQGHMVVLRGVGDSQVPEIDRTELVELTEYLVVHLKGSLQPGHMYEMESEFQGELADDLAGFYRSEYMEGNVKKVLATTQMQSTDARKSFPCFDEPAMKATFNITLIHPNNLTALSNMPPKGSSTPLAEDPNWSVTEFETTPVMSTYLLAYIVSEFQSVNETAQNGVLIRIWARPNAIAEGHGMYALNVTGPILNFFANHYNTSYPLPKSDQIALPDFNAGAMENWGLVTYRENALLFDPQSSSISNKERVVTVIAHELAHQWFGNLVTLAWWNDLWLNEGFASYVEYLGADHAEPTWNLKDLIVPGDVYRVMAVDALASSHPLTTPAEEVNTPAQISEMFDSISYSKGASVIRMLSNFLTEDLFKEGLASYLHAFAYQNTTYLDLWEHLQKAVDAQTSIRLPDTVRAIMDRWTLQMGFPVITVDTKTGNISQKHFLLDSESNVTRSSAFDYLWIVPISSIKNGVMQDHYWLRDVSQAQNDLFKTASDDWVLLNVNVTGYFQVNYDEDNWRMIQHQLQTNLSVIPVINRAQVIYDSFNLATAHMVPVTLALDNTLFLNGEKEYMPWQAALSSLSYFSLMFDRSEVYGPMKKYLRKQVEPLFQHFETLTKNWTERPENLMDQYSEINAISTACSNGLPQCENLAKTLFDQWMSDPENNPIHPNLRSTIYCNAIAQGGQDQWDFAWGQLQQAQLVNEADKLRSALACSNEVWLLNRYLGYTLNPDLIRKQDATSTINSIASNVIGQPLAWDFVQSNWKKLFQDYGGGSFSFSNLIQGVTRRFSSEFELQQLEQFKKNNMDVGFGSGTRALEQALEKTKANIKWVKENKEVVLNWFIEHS
Description: Comparison of the sensitivities of L-Leucine aminopeptidase toward colorimetric and fluorescent substrates. In general, all assays were performed in 96-well styrene flat-bottom microtiter plates using a Spectra Max M2 spectrophotometer at 37° C. for 10 min. The total volume of each well was 201 μl containing 0.1 M sodium phosphate buffer (190 μl, pH 7.2), stock or diluted protein solution (10 μl), and 5 mM of the substrate solution (1 μl) in either ethanol for substrates (18) and (19). The lowest detection limit of microsomal L-Leucine aminopeptidase by substrates was determined by the fact that the signal at 10 min was equal to or over 3 times the basal line at 0 min. Colorimetric substrates assays (e.g., (20)) were performed in clear 96-well microtititer plates using an absorbance wavelength of 382 nm. The fluorescent substrates containing 5-amino-2-methoxypyridine (e.g., (19)) were measured at an excitation wavelength (302 nm), emission wavelength (396 nm), and auto cutoff wavelength (325 nm). Similarly, the fluorescent substrates containing 5-amino-2-methoxy-6-methylpyridine (e.g., (18)) were measured at an excitation wavelength (304 nm), emission wavelength (392 nm), and auto cutoff wavelength (325 nm).

[5] = pH 7.2, 37° C., protein 1.97 (18), 0.018 (19) μg/well
[6] = absorbance 382 nm, protein 1.97 μg/well

Compound | εmax, molar extinction coefficient [1] | Em, maximal emission wavelength [2] | Ex, maximal excitation wavelength [2] | ØF, fluorescence quantum yield [3] | Protein, lowest detection limit of L-Leucine aminopeptidase (signal at 10 min ≥ 3 times base line) ([4]; pH 7.2, 37° C.) | further results
Cc1ccncc1N [Compound 2, 3-amino-4-methylpyridine] | 2580 M⁻¹ cm⁻¹ | 376 nm | 280 nm | 0.53 | – | –
Cc1ccc(N)cn1 [Compound 3, 3-amino-6-methylpyridine] | 2700 M⁻¹ cm⁻¹ | 384 nm | 290 nm | 0.62 | – | –
Nc1cccnc1F [Compound 4, 3-amino-2-fluoropyridine] | 3670 M⁻¹ cm⁻¹ | 374 nm | 282 nm | 0.04 | – | –
Nc1ccc(F)nc1 [Compound 5, 5-amino-2-fluoropyridine] | 2360 M⁻¹ cm⁻¹ | 384 nm | 292 nm | 0.72 | – | –
COc1ncccc1N [Compound 7, 3-amino-2-methoxypyridine] | 4670 M⁻¹ cm⁻¹ | 378 nm | 284 nm | 0.27 | – | –
COc1ccc(N)c(C)n1 [Compound 8, 3-amino-6-methoxy-2-picoline] | 4130 M⁻¹ cm⁻¹ | 392 nm | 304 nm | 0.97 | – | –
COc1ccc(NC(C)=O)c(C)n1 [Compound 11, N-(6-methoxy-2-methylpyridin-3-yl) acetamide] | – | – | – | – | – | melting point: 130.1 to 130.4 °C
COc1ccc(NC(=O)[C@@H](N)CC(C)C)c(C)n1 [Compound 18, N-(6-methoxy-2-methylpyridin-3-yl), (S)-2-amino-4-methylpentanamide] | – | – | – | – | 1.97 μg/200 μL | base line, Average [4, 5]: 164 RFU/sec; signal, Average [4, 5]: 494* RFU/sec
COc1ccc(NC(=O)[C@@H](N)CC(C)C)cn1 [Compound 19, N-(6-methoxypyridin-3-yl), (S)-2-amino-4-methylpentanamide] | – | – | – | – | 0.018 μg/200 μL | base line, Average [4, 5]: 67 RFU/sec; signal, Average [4, 5]: 228* RFU/sec; times more sensitive than substrate (20) ([4]; Table 5): at least 100 times
CC(C)C[C@H](N)C(=O)Nc1ccc([N+](=O)[O-])cc1 [Compound 20, L-Leucine-p-nitroanilide] | – | – | – | – | 1.97 μg/200 μL | base line, Average [4, 6]: 0.08 OD; signal, Average [4, 6]: 0.24* OD
